Measured values: patent US4808572A, “α-Hydroxy thioethers” (Ciba-Geigy Corporation, priority 1985, dated 1989)

What was measured:
[1] = biological target: phospholipase C from human thrombocytes; assay: In vitro inhibition of phospholipase C obtained from human thrombocytes; type: biochemical; details: enzyme from human thrombocytes, phosphatidyl-[14C]-inositol, 37°, 5 minutes, pH 6
Method: Human thrombocytes are obtained from "buffy coats" by fractional centrifugation and then deep frozen.
To ascertain the enzyme activity, enzyme (20-100 μg protein) is incubated at 37° for 5 minutes in 0.025M tris/malate buffer pH 6 with the addition of 0.2 mM CaCl2 and 0.02 mM radioactively labelled substrate, phosphatidyl-[^14 C]-inositol. The reaction is stopped by extraction by shaking with CHCl3 /CH3 OH 2:1 (v/v). In the course of this operation unconsumed substrate is extracted into the organic phase, whilst the reaction product, ^14 C-inositol phosphate, remains in the aqueous phase and can be measured by radiometry of an aliquot.
In order to ascertain the inhibitory action of test substances on phospholipase C, these substances are added in the form of solutions in water, dimethyl sulphoxide (final concentration in the mixture up to 5%, v/v) or ethanol (final concentration in the mixture up to 2.5%, v/v) to the incubation mixture. The strength of action of the test substances is expressed by the IC50, that is to say the concentration that causes a 50% inhibition of the control activity. The IC50 is ascertained on a graph by plotting the percentage inhibition on the ordinate against the log of the concentration (μM) on the abscissa.

[2] = biological target: phospholipase A2 from human leucocytes; assay: In vitro inhibition of phospholipase A2 obtained from human leucocytes; type: biochemical; details: enzyme from human neutrophilic polymorphonuclear leucocytes, 14C-oleic acid labelled E. coli phospholipids, 37°, 1 hour, pH 7
Method: Human neutrophilic polymorphonuclear leucocytes are isolated from "buffy coats" by multistage fractional sedimentation and are deep-frozen. Phospholipase A2 is extracted from the cell suspension by homogenisation with the addition of ice-cold 0.36N H2 SO4 in 2N NaCl, and the supernatant obtained after centrifugation at 10,000×g is dialysed against sodium acetate buffer pH 4.5.
In order to determine the enzyme activity, enzyme (10-30 μg protein) is incubated at 37° for 1 hour in 0.1M tris/HCl buffer pH 7 with the addition of 1 mM CaCl2 and substrate consisting of phospholipids (2 μM) of Escherichia coli that have been radioactively labelled with ^14 C-oleic acid by means of biosynthesis. The reaction is stopped by the addition of Dole reagent (isopropanol/heptane/1N H2 SO4 40:10:1, v/v) and the ^14 C-oleic acid selectively released by phospholipase A2 is extracted. Substrate also extracted at the same time is completely removed by filtering the extract through a column of silica gel. The ^14 C-oleic acid in the eluate is determined by radiometry.
In order to ascertain the inhibitory action of test substances on phospholipase A2, these substances are added in the form of solutions in water, dimethyl sulphoxide (final concentration in the mixture up to 5% v/v) or ethanol (final concentration in the mixture up to 2.5% v/v) to the incubation mixture. […]

IC50 [1]: 20 µM
IC50 [2]: 1600 µM
SMILES: CCN(CC)CCCC(C)Nc1c2ccc(Cl)cc2nc2ccc(OC)cc12 (centres unmarked) [mepacrine]
